Data as given in patent publication US10844077B2, “Thiazolyl-containing compounds for treating proliferative diseases” (Dana-Farber Cancer Institute, Inc., priority 2014, dated 2020).

What was measured:
Assay in all cases: KINATIV assay of compounds I-3 and I-9, lysate directly labeled with ATP-biotin probe (no GF)
Format in all cases: cell-based
kinases in BCWM.1 cells [1] = biological target: kinases in BCWM.1 cells (Homo sapiens, UniProt P04049); details: RAF1; Lys2; 1 μM, 90 min; no GF
Protocol: (§1) The cells were harvested and lysed. […] Bound kinases were identified and quantitated by ACTIVX as described in Patricelli et al., Biochemistry, 2007, 46(2): 350-358. The compounds were tested in duplicates against duplicate or quadruplicate control samples.

kinases in BCWM.1 cells [2] = biological target: kinases in BCWM.1 cells (Homo sapiens, UniProt Q86SG6); details: NEK8; Lys2; 1 μM, 90 min; no GF
Protocol: as §1

kinases in BCWM.1 cells [3] = biological target: kinases in BCWM.1 cells (Homo sapiens, UniProt P48426); details: PIP4K2A; ATP; 1 μM, 90 min; no GF
Protocol: as §1

kinases in BCWM.1 cells [4] = biological target: kinases in BCWM.1 cells (Homo sapiens, UniProt P21127); details: PITSLRE; Lys2; 1 μM, 90 min; no GF
Protocol: as §1

kinases in BCWM.1 cells [5] = biological target: kinases in BCWM.1 cells (Homo sapiens, UniProt Q9BZL6); details: PKD2; Lys1; 1 μM, 90 min; no GF
Protocol: as §1

kinases in BCWM.1 cells [6] = biological target: kinases in BCWM.1 cells (Homo sapiens, UniProt O15530); details: PDK1; Lys1; 1 μM, 90 min; no GF
Protocol: as §1

kinases in BCWM.1 cells [7] = biological target: kinases in BCWM.1 cells (Homo sapiens, UniProt Q9Y2I7); details: PIP5K3; ATP; 1 μM, 90 min; no GF
Protocol: as §1

kinases in BCWM.1 cells [8] = biological target: kinases in BCWM.1 cells (Homo sapiens, UniProt Q9Y572); details: RIPK3; Lys2; 1 μM, 90 min; no GF
Protocol: as §1

kinases in BCWM.1 cells [9] = biological target: kinases in BCWM.1 cells (Homo sapiens, UniProt Q13523); details: PRP4; Lys2; 1 μM, 90 min; no GF
Protocol: as §1

kinases in BCWM.1 cells [10] = biological target: kinases in BCWM.1 cells (Homo sapiens, UniProt P29597); details: TYK2 domain2; Activation Loop; 1 μM, 90 min; no GF
Protocol: as §1

kinases in BCWM.1 cells [11] = biological target: kinases in BCWM.1 cells (Homo sapiens, UniProt Q15418); details: Lys2, 1 μM, 90 min, no GF
Protocol: as §1

kinases in BCWM.1 cells [12] = biological target: kinases in BCWM.1 cells (Homo sapiens, UniProt Q96SB4); details: SRPK1; Lys2; 1 μM, 90 min; no GF
Protocol: as §1

kinases in BCWM.1 cells [13] = biological target: kinases in BCWM.1 cells (Homo sapiens, UniProt Q9NYL2); details: ZAK; Lys1; 1 μM, 90 min; no GF
Protocol: as §1

kinases in BCWM.1 cells [14] = biological target: kinases in BCWM.1 cells (Homo sapiens, UniProt O95819); details: ZC1/HGK; Lys1; 1 μM, 90 min; no GF
Protocol: as §1

kinases in BCWM.1 cells [15] = biological target: kinases in BCWM.1 cells (Homo sapiens, UniProt Q9UBE8); details: NLK; Lys2; 1 μM, 90 min; no GF
Protocol: as §1

kinases in BCWM.1 cells [16] = biological target: kinases in BCWM.1 cells (Homo sapiens, UniProt P53350); details: PLK1; Lys1; 1 μM, 90 min; no GF
Protocol: as §1

kinases in BCWM.1 cells [17] = biological target: kinases in BCWM.1 cells (Homo sapiens, UniProt Q96S38); details: RSKL1; ATP; 1 μM, 90 min; no GF
Protocol: as §1

kinases in BCWM.1 cells [18] = biological target: kinases in BCWM.1 cells (Homo sapiens, UniProt Q16816); details: PHKg1; Protein Kinase Domain; 1 μM, 90 min; no GF
Protocol: as §1

kinases in BCWM.1 cells [19] = biological target: kinases in BCWM.1 cells (Homo sapiens, UniProt Q86Y07); details: VRK2; Lys2; 1 μM, 90 min; no GF
Protocol: as §1

kinases in BCWM.1 cells [20] = biological target: kinases in BCWM.1 cells (Homo sapiens, UniProt Q8NEB9); details: PIK3C3; ATP; 1 μM, 90 min; no GF
Protocol: as §1

kinases in BCWM.1 cells [21] = biological target: kinases in BCWM.1 cells (Homo sapiens, UniProt P15735); details: PHKg2; Lys1; 1 μM, 90 min; no GF
Protocol: as §1

kinases in BCWM.1 cells [22] = biological target: kinases in BCWM.1 cells (Homo sapiens, UniProt P51812); details: Lys2, 1 μM, 90 min, no GF
Protocol: as §1

kinases in BCWM.1 cells [23] = biological target: kinases in BCWM.1 cells (Homo sapiens, UniProt Q16539); details: p38a, 1 μM, 90 min, no GF
Protocol: as §1

kinases in BCWM.1 cells [24] = biological target: kinases in BCWM.1 cells (Homo sapiens, UniProt Q58A45); details: PAN3; Protein Kinase Domain; 1 μM, 90 min; no GF
Protocol: as §1

kinases in BCWM.1 cells [25] = biological target: kinases in BCWM.1 cells (Homo sapiens, UniProt P51957); details: NEK4; Lys2; 1 μM, 90 min; no GF
Protocol: as §1

Sequence of kinases in BCWM.1 cells (Homo sapiens, UniProt Q16539) (Q16539 2-360 limits assumed): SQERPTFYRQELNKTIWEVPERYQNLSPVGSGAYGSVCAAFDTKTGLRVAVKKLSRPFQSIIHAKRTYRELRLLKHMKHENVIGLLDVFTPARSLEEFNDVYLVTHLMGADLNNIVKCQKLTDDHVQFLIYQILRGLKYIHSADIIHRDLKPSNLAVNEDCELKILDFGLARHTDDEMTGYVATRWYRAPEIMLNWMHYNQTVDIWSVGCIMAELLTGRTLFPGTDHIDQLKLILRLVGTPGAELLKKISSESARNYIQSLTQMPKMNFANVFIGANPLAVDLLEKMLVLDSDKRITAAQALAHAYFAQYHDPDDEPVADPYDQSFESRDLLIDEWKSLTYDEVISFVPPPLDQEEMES
Sequence of kinases in BCWM.1 cells (Homo sapiens, UniProt O95819) (O95819 2-1239 limits assumed): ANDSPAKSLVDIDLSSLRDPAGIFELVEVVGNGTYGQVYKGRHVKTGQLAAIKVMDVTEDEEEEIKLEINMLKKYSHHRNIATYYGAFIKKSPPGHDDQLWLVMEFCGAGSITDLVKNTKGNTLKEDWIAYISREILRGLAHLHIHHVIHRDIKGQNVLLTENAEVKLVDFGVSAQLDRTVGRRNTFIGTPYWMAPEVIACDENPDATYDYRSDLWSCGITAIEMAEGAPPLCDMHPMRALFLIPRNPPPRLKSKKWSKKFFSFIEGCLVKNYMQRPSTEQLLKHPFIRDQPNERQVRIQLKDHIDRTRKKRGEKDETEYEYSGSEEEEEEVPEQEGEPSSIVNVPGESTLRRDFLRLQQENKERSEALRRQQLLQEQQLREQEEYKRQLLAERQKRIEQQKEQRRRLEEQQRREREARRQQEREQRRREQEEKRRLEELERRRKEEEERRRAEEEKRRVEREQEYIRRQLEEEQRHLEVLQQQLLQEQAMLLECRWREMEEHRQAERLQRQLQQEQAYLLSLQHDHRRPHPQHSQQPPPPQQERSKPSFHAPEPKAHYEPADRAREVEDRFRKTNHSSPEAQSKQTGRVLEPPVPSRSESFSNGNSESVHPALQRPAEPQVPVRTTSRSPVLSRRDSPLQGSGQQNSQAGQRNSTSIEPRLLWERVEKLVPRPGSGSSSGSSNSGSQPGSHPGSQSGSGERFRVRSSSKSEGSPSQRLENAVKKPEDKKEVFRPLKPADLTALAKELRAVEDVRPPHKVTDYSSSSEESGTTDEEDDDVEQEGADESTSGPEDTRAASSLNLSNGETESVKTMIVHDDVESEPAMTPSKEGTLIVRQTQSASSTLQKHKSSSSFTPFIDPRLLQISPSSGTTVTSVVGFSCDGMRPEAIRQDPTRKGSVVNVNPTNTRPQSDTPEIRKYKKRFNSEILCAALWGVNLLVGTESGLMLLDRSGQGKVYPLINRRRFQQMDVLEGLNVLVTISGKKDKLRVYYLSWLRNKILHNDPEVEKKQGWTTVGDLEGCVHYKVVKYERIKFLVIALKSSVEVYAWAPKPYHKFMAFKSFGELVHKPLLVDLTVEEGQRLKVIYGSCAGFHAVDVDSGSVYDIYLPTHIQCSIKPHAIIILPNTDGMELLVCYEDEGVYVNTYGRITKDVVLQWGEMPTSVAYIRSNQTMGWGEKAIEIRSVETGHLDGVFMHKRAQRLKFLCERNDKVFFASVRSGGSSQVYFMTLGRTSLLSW
Sequence of kinases in BCWM.1 cells (Homo sapiens, UniProt Q9NYL2) (Q9NYL2 2-800 limits assumed): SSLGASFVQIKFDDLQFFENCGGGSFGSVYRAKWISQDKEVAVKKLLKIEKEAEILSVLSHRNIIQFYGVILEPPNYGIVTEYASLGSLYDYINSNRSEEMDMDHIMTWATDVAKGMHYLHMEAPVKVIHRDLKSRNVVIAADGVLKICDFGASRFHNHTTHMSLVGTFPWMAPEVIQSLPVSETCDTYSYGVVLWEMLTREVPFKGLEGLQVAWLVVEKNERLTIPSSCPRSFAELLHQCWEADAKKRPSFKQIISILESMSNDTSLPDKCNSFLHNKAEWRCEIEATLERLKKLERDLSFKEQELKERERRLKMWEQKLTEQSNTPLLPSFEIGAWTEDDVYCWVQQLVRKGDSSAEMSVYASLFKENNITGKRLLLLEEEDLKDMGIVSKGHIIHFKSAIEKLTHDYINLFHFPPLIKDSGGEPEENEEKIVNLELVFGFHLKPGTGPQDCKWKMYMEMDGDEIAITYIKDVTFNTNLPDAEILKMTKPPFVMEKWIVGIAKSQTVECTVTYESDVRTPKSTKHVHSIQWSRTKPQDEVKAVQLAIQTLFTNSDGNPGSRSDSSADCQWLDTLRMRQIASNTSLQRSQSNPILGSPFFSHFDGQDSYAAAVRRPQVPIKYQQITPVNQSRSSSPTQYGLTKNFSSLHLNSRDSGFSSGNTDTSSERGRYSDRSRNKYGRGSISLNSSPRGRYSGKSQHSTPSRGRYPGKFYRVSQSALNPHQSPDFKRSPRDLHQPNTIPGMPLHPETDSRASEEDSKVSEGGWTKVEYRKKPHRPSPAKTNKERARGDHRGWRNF
Sequence of kinases in BCWM.1 cells (Homo sapiens, UniProt P48426) (P48426 2-406 limits assumed): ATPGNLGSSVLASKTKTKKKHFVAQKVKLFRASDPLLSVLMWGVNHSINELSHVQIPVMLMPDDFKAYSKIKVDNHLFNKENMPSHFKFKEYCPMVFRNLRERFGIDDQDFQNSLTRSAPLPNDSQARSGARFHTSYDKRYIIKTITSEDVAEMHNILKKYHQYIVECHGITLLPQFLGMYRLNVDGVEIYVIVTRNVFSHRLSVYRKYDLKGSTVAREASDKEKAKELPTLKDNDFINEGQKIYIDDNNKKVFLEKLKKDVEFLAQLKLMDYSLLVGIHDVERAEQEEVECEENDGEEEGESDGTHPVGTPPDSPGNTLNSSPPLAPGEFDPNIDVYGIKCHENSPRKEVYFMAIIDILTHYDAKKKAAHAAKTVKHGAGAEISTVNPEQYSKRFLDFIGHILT
Sequence of kinases in BCWM.1 cells (Homo sapiens, UniProt P53350) (P53350 2-603 limits assumed): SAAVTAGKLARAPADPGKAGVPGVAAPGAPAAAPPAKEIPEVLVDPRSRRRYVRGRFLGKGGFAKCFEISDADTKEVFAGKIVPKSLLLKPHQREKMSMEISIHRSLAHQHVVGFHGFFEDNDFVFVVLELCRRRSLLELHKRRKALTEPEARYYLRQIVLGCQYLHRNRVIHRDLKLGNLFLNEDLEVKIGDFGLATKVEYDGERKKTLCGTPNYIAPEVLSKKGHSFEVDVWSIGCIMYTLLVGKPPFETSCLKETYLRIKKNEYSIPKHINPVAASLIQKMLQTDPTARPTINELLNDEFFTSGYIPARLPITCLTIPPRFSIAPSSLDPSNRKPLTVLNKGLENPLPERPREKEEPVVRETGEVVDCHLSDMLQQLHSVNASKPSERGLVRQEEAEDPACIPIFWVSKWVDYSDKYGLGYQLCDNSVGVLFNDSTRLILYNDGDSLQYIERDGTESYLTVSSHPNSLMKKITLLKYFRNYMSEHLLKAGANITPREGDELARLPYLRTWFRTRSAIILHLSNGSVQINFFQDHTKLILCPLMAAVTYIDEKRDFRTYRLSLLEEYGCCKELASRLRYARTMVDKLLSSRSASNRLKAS
Sequence of kinases in BCWM.1 cells (Homo sapiens, UniProt Q13523) (Q13523 2-1007 limits assumed): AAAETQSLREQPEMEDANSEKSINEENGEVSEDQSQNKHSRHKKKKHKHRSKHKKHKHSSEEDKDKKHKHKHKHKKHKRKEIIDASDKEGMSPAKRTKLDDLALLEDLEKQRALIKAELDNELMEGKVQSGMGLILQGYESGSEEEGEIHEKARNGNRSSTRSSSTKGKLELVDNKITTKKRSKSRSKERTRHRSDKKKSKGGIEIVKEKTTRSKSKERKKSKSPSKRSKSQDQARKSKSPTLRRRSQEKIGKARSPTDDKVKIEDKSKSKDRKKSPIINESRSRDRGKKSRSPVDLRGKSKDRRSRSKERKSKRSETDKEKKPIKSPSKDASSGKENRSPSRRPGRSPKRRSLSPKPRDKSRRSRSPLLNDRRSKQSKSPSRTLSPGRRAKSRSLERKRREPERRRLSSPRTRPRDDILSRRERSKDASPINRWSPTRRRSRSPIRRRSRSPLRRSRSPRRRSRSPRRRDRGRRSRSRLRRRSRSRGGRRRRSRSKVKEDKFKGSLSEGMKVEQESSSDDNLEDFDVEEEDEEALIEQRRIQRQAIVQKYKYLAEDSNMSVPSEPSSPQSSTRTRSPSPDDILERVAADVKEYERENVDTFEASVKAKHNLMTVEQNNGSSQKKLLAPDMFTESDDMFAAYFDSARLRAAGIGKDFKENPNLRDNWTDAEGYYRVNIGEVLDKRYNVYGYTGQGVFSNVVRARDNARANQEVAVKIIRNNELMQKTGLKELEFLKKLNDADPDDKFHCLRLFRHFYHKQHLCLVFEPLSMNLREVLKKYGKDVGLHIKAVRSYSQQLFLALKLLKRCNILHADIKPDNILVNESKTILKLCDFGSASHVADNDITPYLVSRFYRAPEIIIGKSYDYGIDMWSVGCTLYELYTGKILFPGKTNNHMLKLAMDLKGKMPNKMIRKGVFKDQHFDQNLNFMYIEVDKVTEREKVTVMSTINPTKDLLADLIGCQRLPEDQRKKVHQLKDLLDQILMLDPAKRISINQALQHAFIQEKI

SMILES	% change of MS signal compared to control sample (kinases in BCWM.1 cells [1]) [%]	% change of MS signal compared to control sample (kinases in BCWM.1 cells [2]) [%]	% change of MS signal compared to control sample (kinases in BCWM.1 cells [3]) [%]	% change of MS signal compared to control sample (kinases in BCWM.1 cells [4]) [%]	% change of MS signal compared to control sample (kinases in BCWM.1 cells [5]) [%]	% change of MS signal compared to control sample (kinases in BCWM.1 cells [6]) [%]	% change of MS signal compared to control sample (kinases in BCWM.1 cells [7]) [%]	% change of MS signal compared to control sample (kinases in BCWM.1 cells [8]) [%]	% change of MS signal compared to control sample (kinases in BCWM.1 cells [9]) [%]	% change of MS signal compared to control sample (kinases in BCWM.1 cells [10]) [%]	% change of MS signal compared to control sample (kinases in BCWM.1 cells [11]; RSK1 domain1) [%]	% change of MS signal compared to control sample (kinases in BCWM.1 cells [11]; RSK1 domain2) [%]	% change of MS signal compared to control sample (kinases in BCWM.1 cells [12]) [%]	% change of MS signal compared to control sample (kinases in BCWM.1 cells [13]) [%]	% change of MS signal compared to control sample (kinases in BCWM.1 cells [14]) [%]	% change of MS signal compared to control sample (kinases in BCWM.1 cells [15]) [%]	% change of MS signal compared to control sample (kinases in BCWM.1 cells [16]) [%]	% change of MS signal compared to control sample (kinases in BCWM.1 cells [17]) [%]	% change of MS signal compared to control sample (kinases in BCWM.1 cells [18]) [%]	% change of MS signal compared to control sample (kinases in BCWM.1 cells [19]) [%]	other results
C=CC(=O)N1CC[C@H](Nc2nccc(Nc3ncc(C(=O)Nc4c(C)cccc4C)s3)n2)C1 [Example I-3]	−18.8	5.1	−4.9	−14.1	5.5	−8.4	6.5	13.4	5.9	−10.1	9	−1.9	−7.8	1.6	−14.8	66.2	0.2	−17	31.7	−13.9	% change of MS signal compared to control sample (kinases in BCWM.1 cells [20]): 2.4%; % change of MS signal compared to control sample (kinases in BCWM.1 cells [21]): −31.2%; % change of MS signal compared to control sample (kinases in BCWM.1 cells [22]; RSK2 domain1): −2%; % change of MS signal compared to control sample (kinases in BCWM.1 cells [22]; RSK2 domain2): −10.2%; % change of MS signal compared to control sample (kinases in BCWM.1 cells [23]; Lys2): 43.5%; % change of MS signal compared to control sample (kinases in BCWM.1 cells [23]; Protein Kinase Domain): 32.6%; % change of MS signal compared to control sample (kinases in BCWM.1 cells [24]): −17.5%; % change of MS signal compared to control sample (kinases in BCWM.1 cells [25]): 10.1%
CCC(=O)N1CC[C@H](Nc2nccc(Nc3ncc(C(=O)Nc4c(C)cccc4C)s3)n2)C1 [Example I-9]	9.9	−14.1	−10.5	−10.8	−11	−6.4	−6.7	−15	−24.8	−17.7	−2	−9.7	−4	−9.3	20.9	−1.2	2.1	13.5	−51	6.2	% change of MS signal compared to control sample (kinases in BCWM.1 cells [20]): −23.4%; % change of MS signal compared to control sample (kinases in BCWM.1 cells [21]): 12.5%; % change of MS signal compared to control sample (kinases in BCWM.1 cells [22]; RSK2 domain1): −5.6%; % change of MS signal compared to control sample (kinases in BCWM.1 cells [22]; RSK2 domain2): −9.7%; % change of MS signal compared to control sample (kinases in BCWM.1 cells [23]; Lys2): −7.8%; % change of MS signal compared to control sample (kinases in BCWM.1 cells [23]; Protein Kinase Domain): −2.9%; % change of MS signal compared to control sample (kinases in BCWM.1 cells [24]): 23.2%; % change of MS signal compared to control sample (kinases in BCWM.1 cells [25]): −13.1%
